Reference: patent US8691753B2 (priority 2009, dated 2014)
Read-outs that look alike come from different tables or passages of the source.

What was measured:
Type in all cases: biochemical
[1] = biological target: MMP-3h (Homo sapiens (Human), UniProt P08254); test: Inhibition constant (Ki) on MMP-3h; conditions: human MMP-3
In short: (§1)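 Following an established literature procedure, each compound's inhibition constant was measured on the human form of each enzyme.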

[2] = biological target: MMP-12h (Homo sapiens (Human), UniProt P39900); test: Inhibition constant (Ki) on MMP-12h; conditions: human MMP-12
[3] = biological target: MMP-9h (Homo sapiens (Human), UniProt P14780); test: Inhibition constant (Ki) on MMP-9h; conditions: human MMP-9
In short: as §1

[4] = biological target: MMP-10h (Homo sapiens (Human), UniProt P09238); test: Inhibition constant (Ki) on MMP-10h; conditions: human MMP-10
[5] = biological target: MMP-2h (Homo sapiens (Human), UniProt P08253); test: Inhibition constant (Ki) on MMP-2h; conditions: human MMP-2
In short: as §1

[6] = biological target: MMP-13h (Homo sapiens (Human), UniProt P45452); test: Inhibition constant (Ki) on MMP-13h; conditions: human MMP-13
In short: as §1

[7] = biological target: MMP-8h (Homo sapiens (Human), UniProt P22894); test: Inhibition constant (Ki) on MMP-8h; conditions: human MMP-8
[8] = biological target: MMP-14h (Homo sapiens (Human), UniProt P50281); test: Inhibition constant (Ki) on MMP-14h; conditions: human MMP-14
In short: as §1

Chain of MMP-12h (P39900 106-470): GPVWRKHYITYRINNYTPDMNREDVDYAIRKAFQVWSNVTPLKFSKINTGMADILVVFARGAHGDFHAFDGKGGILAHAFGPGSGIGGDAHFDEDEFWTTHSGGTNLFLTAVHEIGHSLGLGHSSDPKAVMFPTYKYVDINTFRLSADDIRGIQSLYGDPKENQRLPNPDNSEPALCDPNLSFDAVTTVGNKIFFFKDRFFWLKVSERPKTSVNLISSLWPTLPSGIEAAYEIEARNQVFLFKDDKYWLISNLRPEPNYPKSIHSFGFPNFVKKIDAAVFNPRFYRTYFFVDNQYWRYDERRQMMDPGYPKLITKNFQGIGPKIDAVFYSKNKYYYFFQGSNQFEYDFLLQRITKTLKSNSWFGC
Chain of MMP-2h (P08253 110-660): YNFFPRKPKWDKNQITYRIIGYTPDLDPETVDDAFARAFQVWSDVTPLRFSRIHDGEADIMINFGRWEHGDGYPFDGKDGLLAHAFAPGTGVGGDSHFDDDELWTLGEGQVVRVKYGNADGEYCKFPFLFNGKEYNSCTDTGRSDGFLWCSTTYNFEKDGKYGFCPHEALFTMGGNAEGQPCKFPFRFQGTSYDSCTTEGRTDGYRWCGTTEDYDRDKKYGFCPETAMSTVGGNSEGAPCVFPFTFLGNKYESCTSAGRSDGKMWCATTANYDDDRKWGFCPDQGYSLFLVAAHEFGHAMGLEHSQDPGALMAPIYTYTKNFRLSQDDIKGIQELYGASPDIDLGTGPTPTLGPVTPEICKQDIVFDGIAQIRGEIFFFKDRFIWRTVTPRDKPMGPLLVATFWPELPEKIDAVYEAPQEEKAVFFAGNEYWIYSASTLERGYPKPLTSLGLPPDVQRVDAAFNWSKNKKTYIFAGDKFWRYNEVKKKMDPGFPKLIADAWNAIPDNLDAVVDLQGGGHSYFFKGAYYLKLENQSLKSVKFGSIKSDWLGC
Chain of MMP-8h (P22894 101-467): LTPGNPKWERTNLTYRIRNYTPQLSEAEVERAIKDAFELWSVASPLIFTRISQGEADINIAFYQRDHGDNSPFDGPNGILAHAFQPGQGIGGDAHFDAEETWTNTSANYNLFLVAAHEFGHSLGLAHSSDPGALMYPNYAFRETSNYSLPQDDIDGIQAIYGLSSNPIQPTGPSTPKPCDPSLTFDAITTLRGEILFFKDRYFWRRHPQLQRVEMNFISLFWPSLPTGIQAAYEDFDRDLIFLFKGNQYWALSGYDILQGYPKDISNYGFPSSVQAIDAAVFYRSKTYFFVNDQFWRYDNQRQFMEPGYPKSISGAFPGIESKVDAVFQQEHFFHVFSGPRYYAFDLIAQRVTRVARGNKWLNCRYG
Chain of MMP-10h (P09238 99-476): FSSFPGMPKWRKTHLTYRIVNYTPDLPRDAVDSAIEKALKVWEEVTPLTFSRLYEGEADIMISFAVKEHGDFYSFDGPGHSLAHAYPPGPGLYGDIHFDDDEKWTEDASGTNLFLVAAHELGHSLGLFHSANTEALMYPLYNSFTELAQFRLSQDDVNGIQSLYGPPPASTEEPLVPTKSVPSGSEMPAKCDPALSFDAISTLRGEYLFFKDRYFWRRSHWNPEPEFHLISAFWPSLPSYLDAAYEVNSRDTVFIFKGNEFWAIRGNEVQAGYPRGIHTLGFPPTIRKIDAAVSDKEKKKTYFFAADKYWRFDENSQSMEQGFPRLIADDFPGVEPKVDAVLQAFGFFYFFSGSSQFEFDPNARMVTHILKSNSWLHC
Chain of MMP-9h (P14780 94-707): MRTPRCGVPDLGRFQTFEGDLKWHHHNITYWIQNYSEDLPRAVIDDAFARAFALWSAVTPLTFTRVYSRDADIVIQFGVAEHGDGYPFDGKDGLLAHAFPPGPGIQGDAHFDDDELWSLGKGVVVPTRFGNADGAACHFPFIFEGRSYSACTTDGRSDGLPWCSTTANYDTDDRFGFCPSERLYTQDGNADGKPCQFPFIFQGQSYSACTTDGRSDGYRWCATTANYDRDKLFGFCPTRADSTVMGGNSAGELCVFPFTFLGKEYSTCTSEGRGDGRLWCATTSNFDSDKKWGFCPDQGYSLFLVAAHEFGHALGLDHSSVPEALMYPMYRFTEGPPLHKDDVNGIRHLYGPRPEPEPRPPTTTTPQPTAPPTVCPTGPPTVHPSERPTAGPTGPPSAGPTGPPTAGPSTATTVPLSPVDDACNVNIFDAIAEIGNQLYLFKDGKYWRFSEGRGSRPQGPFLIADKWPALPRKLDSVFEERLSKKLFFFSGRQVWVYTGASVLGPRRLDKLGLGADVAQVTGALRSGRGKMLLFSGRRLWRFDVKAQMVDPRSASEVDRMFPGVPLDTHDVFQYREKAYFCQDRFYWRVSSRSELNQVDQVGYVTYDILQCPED
Chain of MMP-3h (P08254 100-477): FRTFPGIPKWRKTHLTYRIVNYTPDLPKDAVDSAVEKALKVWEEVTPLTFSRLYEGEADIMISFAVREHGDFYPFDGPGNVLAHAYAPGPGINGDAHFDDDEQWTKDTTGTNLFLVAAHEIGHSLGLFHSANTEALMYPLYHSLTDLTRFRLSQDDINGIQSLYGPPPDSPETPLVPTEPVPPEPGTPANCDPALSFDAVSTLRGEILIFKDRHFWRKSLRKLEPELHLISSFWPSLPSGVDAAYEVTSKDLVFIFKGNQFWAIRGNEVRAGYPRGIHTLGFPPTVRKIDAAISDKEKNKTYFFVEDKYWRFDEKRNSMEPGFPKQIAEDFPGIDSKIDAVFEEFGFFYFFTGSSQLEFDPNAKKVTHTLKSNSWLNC

Row | SMILES | Ki ([1]; read-out: Ki MMP-3h) | Ki ([2]; read-out: Ki MMP-12h) | Ki ([3]; read-out: Ki MMP-9h) | Ki ([4]; read-out: Ki MMP-10h) | Ki ([5]; read-out: Ki MMP-2h) | Ki ([6]; read-out: Ki MMP-13h) | Ki ([7]; read-out: Ki MMP-8h) | Ki ([8]; read-out: Ki MMP-14h) | Ki [1] | Ki [2] | Ki [3] | Ki [4] | Ki [5] | Ki [6] | Ki [7] | Ki [8]
1 | NC(=O)[C@H](CO)NC(=O)[C@H](CCC(=O)O)NC(=O)CCc1ccc(-c2ccc(-c3ccccc3)cc2)cc1 [Compound 68, (S)-5-((S)-1-amino-3-hydroxy-1-oxopropan-2-ylamino)-4-(3-(4′-phenylbiphenyl-4-yl)propanamido)-5-oxopentanoic acid] | 108 nM | 3.5 nM | > 1000 nM | 71 nM | 31 nM | 16.6 nM | 227 nM | > 1000 nM |  |  |  |  |  |  |  | 
2 | NC(=O)[C@H](CCC(=O)O)NC(=O)[C@H](CC(=O)O)NC(=O)CCc1ccc(-c2cc(-c3ccccc3)cs2)cc1 [Compound 100, (S)-5-amino-4-((S)-3-carboxy-2-(3-(4-(4-phenylthiophen-2-yl)phenyl)propanamido)propanamido)-5-oxopentanoic acid] | > 1000 nM | 15.1 nM | > 1000 nM | > 1000 nM | 862 nM | 559 nM | 559 nM | > 1000 nM |  |  |  |  |  |  |  | 
3 | NC(=O)[C@H](CCC(=O)O)NC(=O)[C@H](CO)NC(=O)CCc1ccc(-c2ccc(-c3ccccc3)cc2)cc1 [Compound 78, (S)-5-amino-4-((S)-3-hydroxy-2-(3-(4′-phenylbiphenyl-4-yl)propanamido)propanamido)-5-oxopentanoic acid] | 116 nM | 206 nM | > 5000 nM | > 5000 nM | 729 nM | 367 nM | > 1000 nM | > 1000 nM |  |  |  |  |  |  |  | 
4 | NC(=O)[C@H](CCC(=O)O)NC(=O)[C@H](CCC(=O)O)NC(=O)CCc1ccc(-c2ccsc2)cc1 [Compound 38, (S)-5-amino-4-((S)-4-carboxy-2-(3-(4-(thiophen-3-yl)phenyl)propanamido)butanamido)-5-oxopentanoic acid] |  |  |  |  |  |  |  |  | 337 nM | 12 nM | 141 nM | 446 nM | 225 nM | 532 nM | 52 nM | 410 nM
5 | CC(C)C[C@H](NC(=O)[C@H](CCC(=O)O)NC(=O)CCc1ccc(-c2cccs2)cc1)C(N)=O [Compound 88, (S)-5-((S)-1-amino-4-methyl-1-oxopentan-2-ylamino)-5-oxo-4-(3-(4-(thiophen-2-yl)phenyl)propanamido)pentanoic acid] | > 10000 nM | 32 nM | > 1000 nM | > 1000 nM | 298 nM | > 1000 nM | 73 nM | > 1000 nM |  |  |  |  |  |  |  | 
6 | C[C@H](NC(=O)[C@H](CCC(=O)O)NC(=O)CCc1ccc(-c2ccccc2)cc1)C(N)=O [Compound 47, (S)-5-((S)-1-amino-1-oxopropan-2-ylamino)-4-(3-(biphenyl-4-yl)propanamido)-5-oxopentanoic acid] | > 10000 nM | 58 nM | > 1000 nM | > 1000 nM | > 1000 nM | > 1000 nM | 311 nM | > 5000 nM |  |  |  |  |  |  |  | 
7 | NC(=O)CC[C@H](NC(=O)CCc1ccc(-c2ccc(-c3ccccc3)cc2)cc1)C(=O)N[C@@H](CCC(=O)O)C(N)=O [Compound 72, (S)-5-amino-4-((S)-5-amino-2-(3-(4′-phenylbiphenyl-4-yl)propanamido)-5-oxopentanamido)-5-oxopentanoic acid] |  |  |  |  |  |  |  |  | 64 nM | 134 nM | > 5000 nM | > 1000 nM | 386 nM | 180 nM | > 1000 nM | > 5000 nM
8 | Cc1ccsc1-c1ccc(CCC(=O)N[C@@H](CCC(=O)O)C(=O)N[C@@H](CCC(=O)O)C(N)=O)cc1 [Compound 107, (S)-5-amino-4-((S)-4-carboxy-2-(3-(4-(3-methylthiophen-2-yl)phenyl)propanamido)butanamido)-5-oxopentanoic acid] | > 10000 nM | 84 nM | > 10000 nM | > 1000 nM | > 1000 nM | > 1000 nM | 766 nM | > 5000 nM |  |  |  |  |  |  |  | 
9 | NC(=O)[C@H](CCC(=O)O)NC(=O)[C@H](CCC(=O)O)NC(=O)CCc1ccc(I)cc1 [Compound 31, (S)-5-amino-4-((S)-4-carboxy-2-(3-(4-iodophenyl)propanamido)butanamido)-5-oxopentanoic acid] | > 5000 nM | 155 nM | > 1000 nM | > 1000 nM | > 1000 nM | > 1000 nM | 839 nM | > 1000 nM |  |  |  |  |  |  |  | 
10 | NC(=O)[C@H](CCC(=O)O)NC(=O)[C@H](CCC(=O)O)NC(=O)CCc1ccc(-c2cc(Cl)cc(Cl)c2)cc1 [Compound 58, (S)-5-amino-4-((S)-4-carboxy-2-(3-(3′,5′-dichlorobiphenyl-4-yl)propanamido)butanamido)-5-oxopentanoic acid] | > 1000 nM | 56 nM | 391 nM | > 1000 nM | > 1000 nM | > 1000 nM | > 5000 nM | > 1000 nM |  |  |  |  |  |  |  | 
11 | NC(=O)[C@H](CCC(=O)O)NC(=O)[C@H](CCC(=O)O)NC(=O)CCc1ccc(COc2ccccc2)cc1 [Compound 29, (S)-5-amino-4-((S)-4-carboxy-2-(3-(4-(phenoxymethyl)phenyl)propanamido)butanamido)-5-oxopentanoic acid] | > 10000 nM | 469 nM | > 1000 nM | > 1000 nM | > 1000 nM | 117 nM | > 1000 nM | > 5000 nM |  |  |  |  |  |  |  | 
12 | NC(=O)[C@H](CCCC(=O)O)NC(=O)[C@H](CCCC(=O)O)NC(=O)CCc1cc(-c2ccc(-c3cccc(Cl)c3)cc2)no1 [Compound 13, (S)-6-amino-5-((S)-5-carboxy-2-(3-(3-(3′-chlorobiphenyl-4-yl)isoxazol-5-yl)propanamido)pentanamido)-6-oxohexanoïque] |  |  |  |  |  |  |  |  | 575 nM | 348 nM | 605 nM | > 5000 nM | > 1000 nM | 91 nM | 638 nM | 553 nM
13 | NC(=O)[C@H](CCC(=O)O)NC(=O)[C@H](CCC(=O)O)NC(=O)CCc1ccc(-c2cccc(CO)c2)cc1 [Compound 60, (S)-5-amino-4-((S)-4-carboxy-2-(3-(3′-(hydroxymethyl)biphenyl-4-yl)propanamido)butanamido)-5-oxopentanoic acid] | > 10000 nM | 52 nM | > 5000 nM | > 5000 nM | > 5000 nM | > 5000 nM | 809 nM | > 10000 nM |  |  |  |  |  |  |  | 
14 | NC(=O)[C@H](CCC(=O)O)NC(=O)[C@H](CCC(=O)O)NC(=O)CCc1ccc(-c2ccc(-c3ccccc3)s2)cc1 [Compound 92, (S)-5-amino-4-((S)-4-carboxy-2-(3-(4-(5-phenylthiophen-2-yl)phenyl)propanamido)butanamido)-5-oxopentanoic acid] | 108 nM | 2.58 nM | 874 nM | 156 nM | 279 nM | 200 nM | 381 nM | > 1000 nM |  |  |  |  |  |  |  | 
15 | NC(=O)[C@H](CCC(=O)O)NC(=O)[C@H](CCCC(=O)O)NC(=O)CCc1cc(-c2ccc(-c3cccc(Cl)c3)cc2)no1 [Compound 11, (S)-6-((S)-1-amino-4-carboxy-1-oxobutan-2-ylamino)-5-(3-(3-(3′-chlorobiphenyl-4-yl)isoxazol-5-yl)propanamido)-6-oxohexanoic acid] |  |  |  |  |  |  |  |  | 302 nM | 254 nM | > 10000 nM | 556 nM | > 1000 nM | 191 nM | > 1000 nM | > 10000 nM
16 | NC(=O)[C@H](CCC(=O)O)NC(=O)[C@H](CCC(=O)O)NC(=O)CCc1ccc(-c2cccc(Cl)c2)cc1 [Compound 57, (S)-5-amino-4-((S)-4-carboxy-2-(3-(3′-chlorobiphenyl-4-yl)propanamido)butanamido)-5-oxopentanoic acid] | > 10000 nM | 57 nM | > 1000 nM | > 5000 nM | > 1000 nM | > 5000 nM | > 1000 nM | > 10000 nM |  |  |  |  |  |  |  | 
17 | C[C@H](NC(=O)[C@H](CCC(=O)O)NC(=O)CCc1ccc(-c2ccc(-c3ccccc3)cc2)cc1)C(N)=O [Compound 66, (S)-5-((S)-1-amino-1-oxopropan-2-ylamino)-4-(3-(4′-phenylbiphenyl-4-yl)propanamido)-5-oxopentanoic acid] | 238 nM | 2.2 nM | > 10000 nM | 130 nM | 49 nM | 16.4 nM | 532 nM | > 10000 nM |  |  |  |  |  |  |  | 
18 | CC(C)C[C@H](NC(=O)CCc1ccc(-c2ccc(-c3ccccc3)cc2)cc1)C(=O)N[C@@H](CCC(=O)O)C(N)=O [Compound 79, (S)-5-amino-4-((S)-4-methyl-2-(3-(4′-phenylbiphenyl-4-yl)propanamido)pentanamido)-5-oxopentanoic acid] | 203 nM | > 1000 nM | > 100000 nM | > 1000 nM | > 1000 nM | 443 nM | > 1000 nM | > 10000 nM |  |  |  |  |  |  |  | 
